Assay results: ChEMBL document CHEMBL3044927, “Novel 4(3H)-quinazolinone analogs: synthesis and anticonvulsant activity” (Med Chem Res, 2013)

Key:
Mus musculus [1] = assay: Neurotoxicity against Swiss albino Mus musculus (mouse) at 0.18 mmol/kg, ip measured after 15 to 25 min by chimney test; type: toxicity, organism-based; conditions: in vivo
Mus musculus [2] = assay: Neurotoxicity against Swiss albino Mus musculus (mouse) at 0.37 mmol/kg, ip measured after 15 to 25 min by chimney test; type: toxicity, organism-based; conditions: in vivo
Mus musculus [3] = assay: Neurotoxicity against Swiss albino Mus musculus (mouse) at 0.75 mmol/kg, ip measured after 15 to 25 min by chimney test; type: toxicity, organism-based; conditions: in vivo
Mus musculus [4] = assay: Neurotoxicity against Swiss albino Mus musculus (mouse) at 1.5 mmol/kg, ip measured after 15 to 25 min by chimney test; type: toxicity, organism-based; conditions: in vivo
Mus musculus [5] = assay: Anticonvulsant activity in Swiss albino Mus musculus (mouse) assessed as protection against bicuculline-induced seizure at 0.18 mmol/kg, i.p. administered 30 min prior to bicuculline-challenge measured up to 30 min relative to control; type: functional
Mus musculus [6] = assay: Anticonvulsant activity in Swiss albino Mus musculus (mouse) assessed as protection against bicuculline-induced seizure at 0.37 mmol/kg, i.p. administered 30 min prior to bicuculline-challenge measured up to 30 min relative to control; type: functional
Mus musculus [7] = assay: Anticonvulsant activity in Swiss albino Mus musculus (mouse) assessed as protection against bicuculline-induced seizure at 0.75 mmol/kg, i.p. administered 30 min prior to bicuculline-challenge measured up to 30 min relative to control; type: functional
Mus musculus [8] = assay: Anticonvulsant activity in Swiss albino Mus musculus (mouse) assessed as protection against picrotoxin-induced seizure at 0.18 mmol/kg, i.p. administered 30 min prior to picrotoxin-challenge measured up to 30 min relative to control; type: functional
Mus musculus [9] = assay: Anticonvulsant activity in Swiss albino Mus musculus (mouse) assessed as protection against picrotoxin-induced seizure at 0.37 mmol/kg, i.p. administered 30 min prior to picrotoxin-challenge measured up to 30 min relative to control; type: functional
Mus musculus [10] = assay: Anticonvulsant activity in Swiss albino Mus musculus (mouse) assessed as protection against picrotoxin-induced seizure at 0.75 mmol/kg, i.p. administered 30 min prior to picrotoxin-challenge measured up to 30 min relative to control; type: functional
Mus musculus [11] = assay: Anticonvulsant activity in Swiss albino Mus musculus (mouse) assessed as protection against maximal electric shock-induced seizure at 0.18 mmol/kg, i.p. administered 30 min prior to maximal electric shock-challenge measured up to 30 min relative to control; type: functional
Mus musculus [12] = assay: Anticonvulsant activity in Swiss albino Mus musculus (mouse) assessed as protection against maximal electric shock-induced seizure at 0.37 mmol/kg, i.p. administered 30 min prior to maximal electric shock-challenge measured up to 30 min relative to control; type: functional
Mus musculus [13] = assay: Anticonvulsant activity in Swiss albino Mus musculus (mouse) assessed as protection against maximal electric shock-induced seizure at 0.75 mmol/kg, i.p. administered 30 min prior to maximal electric shock-challenge measured up to 30 min relative to control; type: functional
Mus musculus [14] = species on record: Mus musculus; assay: Ratio of sodium valporate ED50 to compound ED50 in Swiss albino Mus musculus (mouse) PTZ-seizure model; type: functional
[15] = Therapeutic index, ratio of LD50 to ED50 in Swiss albino Mus musculus (mouse); type: organism-based; conditions: in vivo, read-out: Ratio LD50/ED50
[16] = Toxicity against i.p. dosed Swiss albino Mus musculus (mouse) by Sperman-Karber method; type: organism-based; conditions: in vivo, ip
Mus musculus [17] = species on record: Mus musculus; assay: Protective index, ratio of TD50 for to ED50 in Swiss albino Mus musculus (mouse)
[18] = Neurotoxicity against ip dosed Swiss albino Mus musculus (mouse) measured after 15 to 25 min by chimney test; type: toxicity, organism-based; conditions: in vivo
Mus musculus [19] = assay: Anticonvulsant activity in ip dosed Swiss albino Mus musculus (mouse) assessed as protection against PTZ-induced seizure administered 30 min prior to PTZ-challenge measured up to 30 min; type: functional
Mus musculus [20] = assay: Anticonvulsant activity in Swiss albino Mus musculus (mouse) assessed as protection against PTZ-induced seizure at 0.37 mmol/kg, ip administered 30 min prior to PTZ-challenge measured up to 30 min relative to control; type: functional
Mus musculus [21] = assay: Anticonvulsant activity in Swiss albino Mus musculus (mouse) assessed as protection against PTZ-induced seizure at 0.75 mmol/kg, ip administered 30 min prior to PTZ-challenge measured up to 30 min relative to control; type: functional
Mus musculus [22] = assay: Anticonvulsant activity in Swiss albino Mus musculus (mouse) assessed as protection against bicuculline-induced seizure at 1.5 mmol/kg, ip administered 30 min prior to bicuculline-challenge measured up to 30 min relative to control; type: functional
Mus musculus [23] = assay: Anticonvulsant activity in Swiss albino Mus musculus (mouse) assessed as protection against maximal electric shock-induced seizure at 1.5 mmol/kg, ip administered 30 min prior to maximal electric shock-challenge measured up to 30 min relative to control; type: functional
Mus musculus [24] = assay: Anticonvulsant activity in Swiss albino Mus musculus (mouse) assessed as protection against PTZ-induced seizure at 1.5 mmol/kg, ip administered 30 min prior to PTZ-challenge measured up to 30 min relative to control; type: functional
Mus musculus [25] = assay: Anticonvulsant activity in Swiss albino Mus musculus (mouse) assessed as protection against PTZ-induced seizure at 0.18 mmol/kg, ip administered 30 min prior to PTZ-challenge measured up to 30 min relative to control; type: functional

With `O=C1c2ccccc2C(=O)N1n1c(-c2cccs2)nc2ccc(I)cc2c1=O` the Activity (Mus musculus [1]) was 0%, the Activity (Mus musculus [2]) was 30% and the Activity (Mus musculus [3]) was 30%. It also gave an Activity (Mus musculus [4]) of 80%, an Activity (Mus musculus [5]) of 0% and an Activity (Mus musculus [6]) of 10%. It also gave an Activity (Mus musculus [7]) of 40%, an Activity (Mus musculus [8]) of 20% and an Activity (Mus musculus [9]) of 50%. The Activity (Mus musculus [10]) was 50%, the Activity (Mus musculus [11]) was 0% and the Activity (Mus musculus [12]) was 0%. For the same compound, the Activity (Mus musculus [13]) was 0%, the “Ratio ED50” value (Mus musculus [14]) was 2 and the selectivity ratio [15] was 5.5. For the same compound, the LD50 [16] was 1380 mg/kg, the “Ratio TD50/ED50” value (Mus musculus [17]) was 1.78 and the TD50 [18] was 447 mg/kg. For the same compound, the ED50 (Mus musculus [19]) was 251 mg/kg, the Activity (Mus musculus [20]) was 30% and the Activity (Mus musculus [21]) was 70%. For the same compound, the Activity (Mus musculus [22]) was 100%, the Activity (Mus musculus [23]) was 30% and the Activity (Mus musculus [24]) was 100%. It also gave an Activity (Mus musculus [25]) of 0%.
